Assay results taken from patent US20240059703A1 (AMGEN INC., priority 2021, published 2024).

What was measured:
KRAS G12C = KRAS G12C (Homo sapiens (Human), UniProt P01116, C118A/G12C); assay: 2 h coupled exchange assay; type: biochemical; conditions: Avg 2 h Coupled exchange IC50, 2 h compound pre-incubation
Description: The term “2 h coupled exchange assay” or “20 h coupled exchange assay” as used herein refers to the assay described in the Section entitled “BIOLOGICAL EVALUATION.”

[1] = test system: MIA PaCa-2 (human pancreatic carcinoma) cells; assay: Cell Viability Assay (CellTiter-Glo), MIA PaCa-2; type: cell-based; conditions: Homo sapiens, MIA PaCa-2, 72 h
Description: Serially-diluted compound or DMSO was added to the cells, and plates were incubated at 37° C., 5% CO2 for 72 h. Cell viability was measured using a CellTiter-Glo® Luminescent Cell Viability Assay kit (Promega) according to the manufacturer's protocol. The luminescence signal of treated samples was normalized to DMSO control, and data were analyzed using a 4-parameter logistic model to calculate IC50 values.

[2] = test system: A549 (human lung carcinoma) cells; assay: Cell Viability Assay (CellTiter-Glo), A549; type: cell-based; conditions: Homo sapiens, A549, 72 h
How it was run: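 Cells grown in RPMI 1640 with 10% FBS were seeded at 1.67E+04 cells/mL and left overnight at 37° C., 5% CO2. They were then exposed to serially diluted compound for 72 h, after which CellTiter-Glo luminescence was read, normalized to DMSO, and fitted to a 4-parameter logistic model for IC50.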

[3] = SOS-mediated nucleotide exchange

KRAS G12C, sequence (P01116 other isoform, or with tags, fused parts or gaps G12C/C118A): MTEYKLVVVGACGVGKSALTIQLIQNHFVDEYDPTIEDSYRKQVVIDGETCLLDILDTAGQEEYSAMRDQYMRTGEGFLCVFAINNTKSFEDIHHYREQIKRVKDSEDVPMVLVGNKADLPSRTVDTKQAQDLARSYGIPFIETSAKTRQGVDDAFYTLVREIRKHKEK

Row | Compound | IC50 (KRAS G12C) | IC50 [1] | IC50 [2] | IC50 (KRAS G12C; [3])
1 | C=CC(=O)N1CC2(CCN(c3nc4c(c(-c5c(C)c(Cl)cc6cn[nH]c56)c3C#N)COC(C)(C)C4)C2)C1 [Example 14-91, 4-(5-chloro-6-methyl-1H-indazol-7-yl)-7,7-dimethyl-2-(2-(2-propenoyl)-2,6-diazaspiro[3.4]octan-6-yl)-7,8-dihydro-5H-pyrano[4,3-b]pyridine-3-carbonitrile] | 16 nM | 20 nM | > 5000 nM | –
2 | C=CC(=O)N1CC2(CCN(c3nc(-c4ccccc4F)c4c(n3)N([C@H](CC(=O)NC)CC(C)C)CCC4)C2)C1 (single isomer, unassigned) [Example 10] | – | 3240 nM | > 5000 nM | 1680 nM
3 | Cc1ccc2[nH]ncc2c1-c1c(C#N)c(N2CCC3(CN(C(=O)/C=C/CN(C)C)C3)C2)nc2c(F)cccc12 [Example 1-46, 2-(2-((2E)-4-(dimethylamino)-2-butenoyl)-2,6-diazaspiro[3.4]octan-6-yl)-8-fluoro-4-(5-methyl-1H-indazol-4-yl)-3-quinolinecarbonitrile] | – | 2020 nM | 6250 nM | 1530 nM
4 | C=CC(=O)N1CC2(CCN(c3cn4c(C)cnc4c(-c4c(C)ccc5[nH]ncc45)c3C#N)C2)C1 [Example 1-37, 3-methyl-8-(5-methyl-1H-indazol-4-yl)-6-(2-(2-propenoyl)-2,6-diazaspiro[3.4]octan-6-yl)imidazo[1,2-a]pyridine-7-carbonitrile] | – | 2280 nM | > 25000 nM | 402 nM
5 | C=CC(=O)N1CC2(CCN(c3nc4c(c(-c5cc(O)ccc5Cl)c3C#N)CCN(c3scnc3C)C4)C2)C1 [Example 21-13, 4-(2-chloro-5-hydroxyphenyl)-7-(4-methyl-1,3-thiazol-5-yl)-2-(2-(2-propenoyl)-2,6-diazaspiro[3.4]octan-6-yl)-5,6,7,8-tetrahydro-1,7-naphthyridine-3-carbonitrile] | 14 nM | 1070 nM | > 5000 nM | –
6 | C=CC(=O)N1CC2(CCN(c3nc4c(c(-c5c(C)ccc6[nH]ncc56)c3C(F)F)COC(C)(C)C4)C2)C1 [Example 13-45, 1-(6-(3-(difluoromethyl)-7,7-dimethyl-4-(5-methyl-1H-indazol-4-yl)-7,8-dihydro-5H-pyrano[4,3-b]pyridin-2-yl)-2,6-diazaspiro[3.4]octan-2-yl)-2-propen-1-one] | – | 421 nM | > 5000 nM | 148 nM
7 | C=CC(=O)N1CC2(CCN(c3nc4c(c(-c5c(C)ccc6[nH]ncc56)c3C#N)C3CC3C4)C2)C1 (stereo not drawn) [Example 13-82] | – | 462 nM | > 5000 nM | 66 nM
8 | C=CC(=O)N1CC2(CCN(c3nc4cc(-c5scnc5COC)ccc4c(-c4ccccc4F)c3C#N)C2)C1 [Example 20-16, 4-(2-fluorophenyl)-7-(4-(methoxymethyl)-1,3-thiazol-5-yl)-2-(2-(2-propenoyl)-2,6-diazaspiro[3.4]octan-6-yl)-3-quinolinecarbonitrile] | 124 nM | 817 nM | 9150 nM | –
9 | C=CC(=O)N1CC2(CCN(c3nc4c(c(-c5c(C)ccc6[nH]ncc56)c3C#N)COC(C(F)(F)F)C4)C2)C1 (stereo not drawn) [Example 13-99] | – | 1430 nM | > 5000 nM | 180 nM
10 | C=CC(=O)N1CC2(CCN(c3nc4c(c(-c5ccccc5F)c3C#N)CCN(C(=O)[C@@H]3CCCN3C)C4)C2)C1 [Example 21-34, 4-(2-fluorophenyl)-7-(1-methyl-L-prolyl)-2-(2-(2-propenoyl)-2,6-diazaspiro[3.4]octan-6-yl)-5,6,7,8-tetrahydro-1,7-naphthyridine-3-carbonitrile] | 911 nM | 6290 nM | > 25000 nM | –
11 | C=CC(=O)N1CC2(CCN(c3nc4c(c(-c5c(F)ccc6[nH]ncc56)c3C)CCN(C(C)C)C4)C2)C1 [Example 18-15, 1-(6-(4-(5-fluoro-1H-indazol-4-yl)-3-methyl-7-(2-propanyl)-5,6,7,8-tetrahydro-1,7-naphthyridin-2-yl)-2,6-diazaspiro[3.4]octan-2-yl)-2-propen-1-one] | 720 nM | 230 nM | > 25000 nM | –
12 | C=CC(=O)N1CC2(CCN(c3nc4cc(-n5cncc5C)ccc4c(-c4ccccc4Cl)c3C#N)C2)C1 [Example 17-7, 4-(2-chlorophenyl)-7-(5-methyl-1H-imidazol-1-yl)-2-(2-(2-propenoyl)-2,6-diazaspiro[3.4]octan-6-yl)-3-quinolinecarbonitrile] | 126 nM | 1800 nM | 3100 nM | –
13 | C=CC(=O)N1CC2(CCN(c3nc4c(c(-c5cccc6cc(O)ccc56)c3C)CCN(C(C)C)C4)C2)C1 [Example 18-1, 1-(6-(4-(6-Hydroxy-1-naphthalenyl)-3-methyl-7-(2-propanyl)-5,6,7,8-tetrahydro-1,7-naphthyridin-2-yl)-2,6-diazaspiro[3.4]octan-2-yl)-2-propen-1-one] | 37 nM | 23 nM | > 5000 nM | –
14 | C=CC(=O)N1CC2(CCN(c3nc4c(c(-c5cc(O)ccc5C)c3C#N)COC(C)(C)C4)C2)C1 (single isomer, unassigned) [Example 13-128, 4-(5-hydroxy-2-methylphenyl)-7,7-dimethyl-2-(2-(2-propenoyl)-2,6-diazaspiro[3.4]octan-6-yl)-7,8-dihydro-5H-pyrano[4,3-b]pyridine-3-carbonitrile] | – | > 5000 nM | > 5000 nM | 91 nM
15 | C=CC(=O)N1CC2(CCN(c3nc4c(c(-c5cccc(Cl)c5Cl)n3)CCCC4)C2)C1 [Example 1-24, 1-(6-(4-(2,3-dichlorophenyl)-5,6,7,8-tetrahydro-2-quinazolinyl)-2,6-diazaspiro[3.4]octan-2-yl)-2-propen-1-one] | – | 8290 nM | 10600 nM | 4250 nM
16 | C=CC(=O)N1CC2(CCN(c3nc4cc(-c5scnc5CO)ccc4c(-c4ccccc4F)c3C#N)C2)C1 [Example 20-18, 4-(2-fluorophenyl)-7-(4-(hydroxymethyl)-1,3-thiazol-5-yl)-2-(2-(2-propenoyl)-2,6-diazaspiro[3.4]octan-6-yl)-3-quinolinecarbonitrile] | 95 nM | 651 nM | > 5000 nM | –
17 | Cc1ncsc1N1CCc2c(nc(N3CCC4(CN(C(=O)/C=C/CN(C)C)C4)C3)c(C#N)c2-c2ccccc2F)C1 [Example 21-31, 2-(2-((2E)-4-(dimethylamino)-2-butenoyl)-2,6-diazaspiro[3.4]octan-6-yl)-4-(2-fluorophenyl)-7-(4-methyl-1,3-thiazol-5-yl)-5,6,7,8-tetrahydro-1,7-naphthyridine-3-carbonitrile] | 641 nM | 738 nM | > 5000 nM | –
18 | C=CC(=O)N1CC2(CCN(c3nc4c(c(-c5c(C)ccc6cn[nH]c56)c3C)CC[C@H](c3c(C)cnn3C)C4)C2)C1 (single isomer, unassigned) [Example 14-97] | 208 nM | 254 nM | 10000 nM | –
19 | C=CC(=O)N1CC2(CCN(c3nc4c(c(-c5ccc(F)c6sc(N)nc56)c3C)COC(C)(C)C4)C2)C1 (single isomer, unassigned) [Example 14-38, (P)-1-(6-(4-(2-amino-7-fluoro-1,3-benzothiazol-4-yl)-3,7,7-trimethyl-7,8-dihydro-5H-pyrano[4,3-b]pyridin-2-yl)-2,6-diazaspiro[3.4]octan-2-yl)-2-propen-1-one] | 63 nM | 123 nM | > 5000 nM | –
